According to patent US7879808B2, “Lincomycin derivatives and antimicrobial agents comprising the same as active ingredient” (Meiji Seika Kaisha, Ltd., priority 2007, dated 2011):
Converted amounts (≈) assume the structure as drawn.

Key:
Assay type in all cases: cell-based
S. pneumoniae MSC07571 = test: MIC against S. pneumoniae MSC07571 (CLSI M7-A7 agar method); conditions: Sensitivity disk agar-N+5% horse aseptic defibranated blood, about 10^4 CFU/ml; for MIC: Streptococcus pneumoniae, read-out: minimal inhibitory concentration (MIC)
Experimental: (§1) For representative compounds among lincomycin derivatives according to the present invention, the minimal inhibitory concentration (MIC, […]) against various pneumococci was measured according to the method described in Clinical and Laboratory Standards Institute, M7-A7, 2006. Sensitivity disk agar-N+5% horse aseptic defibranated blood was used as the medium for the measurement. The amount of bacteria inoculated was about 10^4 CFU/ml.

S. pneumoniae MSC07471 = test: MIC against S. pneumoniae MSC07471 (CLSI M7-A7 agar method); design: unit not given here; conditions: Sensitivity disk agar-N+5% horse aseptic defibranated blood, about 10^4 CFU/ml
Experimental: as §1

S. pneumoniae MSC17994 = test: MIC against S. pneumoniae MSC17994 (CLSI M7-A7 agar method); design: unit not given here; conditions: Sensitivity disk agar-N+5% horse aseptic defibranated blood, about 10^4 CFU/ml
Experimental: as §1

S. pneumoniae MSC07337 = test: MIC against S. pneumoniae MSC07337 (CLSI M7-A7 agar method); design: unit not given here; conditions: Sensitivity disk agar-N+5% horse aseptic defibranated blood, about 10^4 CFU/ml
Experimental: as §1

S. pneumoniae MSC10197 = test: MIC against S. pneumoniae MSC10197 (CLSI M7-A7 agar method); design: unit not given here; conditions: Sensitivity disk agar-N+5% horse aseptic defibranated blood, about 10^4 CFU/ml
Experimental: as §1

S. pneumoniae MSC07365 = test: MIC against S. pneumoniae MSC07365 (CLSI M7-A7 agar method); design: unit not given here; conditions: Sensitivity disk agar-N+5% horse aseptic defibranated blood, about 10^4 CFU/ml
Experimental: as §1

S. pneumoniae MSC07465 = test: MIC against S. pneumoniae MSC07465 (CLSI M7-A7 agar method); design: unit not given here; conditions: Sensitivity disk agar-N+5% horse aseptic defibranated blood, about 10^4 CFU/ml
Experimental: as §1

SMILES | MIC (S. pneumoniae MSC07571) | minimal inhibitory concentration (MIC) (S. pneumoniae MSC07471) | minimal inhibitory concentration (MIC) (S. pneumoniae MSC07571) | minimal inhibitory concentration (MIC) (S. pneumoniae MSC17994) | minimal inhibitory concentration (MIC) (S. pneumoniae MSC07337) | minimal inhibitory concentration (MIC) (S. pneumoniae MSC10197) | minimal inhibitory concentration (MIC) (S. pneumoniae MSC07365) | minimal inhibitory concentration (MIC) (S. pneumoniae MSC07465)
CCC[C@@H]1C[C@@H](C(=O)NC(C2OC(SC)C(O)C(O)C2O)[C@H](C)Sc2ccc(CCN(C)C)cc2)N(C)C1 (stereo partly shown) [Compound 1, 7-Deoxy-7-(4-(2-(dimethylamino)ethyl)phenylthio)-7-epilincomycin] | 15 µg/mL (≈ 26.3 µM) | – | – | – | – | – | – | –
CCC[C@@H]1C[C@@H](C(=O)NC(C2OC(SC)C(O)C(O)C2O)[C@H](C)Sc2ccc(CCN(C)CCN(C)C)cc2)N(C)C1 (stereo partly shown) [Compound 10, 7-Deoxy-7-(4-(2-((2-(dimethylamino)ethyl)-(methyl)amino)ethyl)-phenylthio)-7-epilincomycin] | 60 µg/mL (≈ 95.7 µM) | – | – | – | – | – | – | –
CSC1OC(C(NC(=O)[C@@H]2C[C@H](CC3CC3)CCN2C)C(C)Sc2ccc(CCN(C)C)nc2)C(O)C(O)C1O (stereo partly drawn) [Compound 52, Methyl 6-N-((2S,4R)-(4-cyclopropylmethyl-1-methyl)piperidine-2-carbonyl)-7-deoxy-7-(6-(2-(dimethylamino)ethyl)-pyridin-3-ylthio)-7-epi-1-thio-α-lincosamide] | – | 32 | 250 µg/mL (≈ 419 µM) | 0.25 | 32 | 0.25 | 64 | 0.25
CSC1OC(C(NC(=O)[C@@H]2C[C@H](CC3CC3)CCN2C)C(C)Sc2ccc(CCN(C)C3CC3)cc2)C(O)C(O)C1O (stereo partly drawn) [Compound 54, Methyl 7-(4-(2-(cyclopropyl(methyl)-amino)ethyl)phenyl-thio)-6-N-((2S,4R)-4-(cyclopropylmethyl)-1-methylpiperidine-2-carbonyl)-7-deoxy-7-epi-1-thio-α-lincosamide] | – | 2 | 30 µg/mL (≈ 48.2 µM) | 0.06 | 2 | 0.03 | 4 | 0.015
